Like-named read-outs stand apart in the source and are kept apart here.
What was measured:
[1] = target: T1, KDR (baculovirus expressed human KDR kinase domain D807-V1356) (Homo sapiens, UniProt P35968); assay: biochemical;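 also: Luciferase-coupled chemiluminescent kinase assay, activity read as percent ATP left after 4 h reaction at ambient temperature, ATP near KM, 10-point dose-response in 384-well plates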
T1 construct: human KDR kinase domain D807-V1356; host or cells: baculovirus expression
Method: (§1) Kinase activity and compound inhibition are investigated using one or more of the three assay formats described below. The ATP concentrations for each assay are selected to be close to the Michaelis-Menten constant (KM) for each individual kinase. Dose-response experiments are performed at 10 different inhibitor concentrations in a 384-well plate format.
KDR biochemical activity was assessed using a Luciferase-Coupled Chemiluminescent Kinase assay (LCCA) format. Kinase activity was measured as the percent ATP remaining following the kinase reaction. Remaining ATP was detected by luciferase-luciferin-coupled chemiluminescence. […] The mixture is incubated at ambient temperature for 4 hours after which 20 uL luciferase-luciferin mix is added and the chemiluminescent signal read using a Wallac Victor^2 reader.

[2] = target: T2, Flt-4 (baculovirus expressed human Flt-4 kinase domain D725-R1298) (Homo sapiens, UniProt P35916); assay: flt-4 Alphascreen Tyrosine Kinase assay; type: biochemical; details: read-out: flt4 IC50;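 also: AlphaScreen chemiluminescence read-out of biotinylated poly(Glu,Tyr) 4:1 phosphorylation via streptavidin donor and PY100 anti-phosphotyrosine acceptor beads, ATP near KM, 1 hr kinase reaction, 10-point dose-response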
T2 construct: human Flt-4 kinase domain D725-R1298; host or cells: baculovirus expression
T2 sequence (P35916 725-1298 isoform P35916-1): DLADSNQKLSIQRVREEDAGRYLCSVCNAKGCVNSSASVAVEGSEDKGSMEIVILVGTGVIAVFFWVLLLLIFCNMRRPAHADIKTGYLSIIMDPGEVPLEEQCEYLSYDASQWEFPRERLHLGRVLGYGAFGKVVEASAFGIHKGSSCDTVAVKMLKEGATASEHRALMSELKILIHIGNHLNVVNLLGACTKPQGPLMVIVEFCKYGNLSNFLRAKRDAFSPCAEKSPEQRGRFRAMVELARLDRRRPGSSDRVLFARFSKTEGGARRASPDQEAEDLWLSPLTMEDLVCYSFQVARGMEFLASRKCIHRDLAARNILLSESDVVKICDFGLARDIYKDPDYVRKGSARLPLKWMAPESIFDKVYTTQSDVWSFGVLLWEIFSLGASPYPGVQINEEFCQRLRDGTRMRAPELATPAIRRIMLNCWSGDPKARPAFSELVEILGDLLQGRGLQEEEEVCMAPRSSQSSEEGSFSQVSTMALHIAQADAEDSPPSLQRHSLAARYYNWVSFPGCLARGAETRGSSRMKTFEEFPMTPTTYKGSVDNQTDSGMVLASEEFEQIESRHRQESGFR

[3] = target: T3, Flt-3 (baculovirus expressed human Flt-3 kinase domain R571-S993) (Homo sapiens, UniProt P36888); assay: biochemical; details: read-out: flt3 IC50;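 also: Luciferase-coupled chemiluminescent kinase assay, activity read as percent ATP left after a 3 h reaction at room temperature, ATP near KM, 10-point dose-response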
T3 construct: human Flt-3 kinase domain R571-S993; host or cells: baculovirus expression
T3 sequence (P36888 571-993): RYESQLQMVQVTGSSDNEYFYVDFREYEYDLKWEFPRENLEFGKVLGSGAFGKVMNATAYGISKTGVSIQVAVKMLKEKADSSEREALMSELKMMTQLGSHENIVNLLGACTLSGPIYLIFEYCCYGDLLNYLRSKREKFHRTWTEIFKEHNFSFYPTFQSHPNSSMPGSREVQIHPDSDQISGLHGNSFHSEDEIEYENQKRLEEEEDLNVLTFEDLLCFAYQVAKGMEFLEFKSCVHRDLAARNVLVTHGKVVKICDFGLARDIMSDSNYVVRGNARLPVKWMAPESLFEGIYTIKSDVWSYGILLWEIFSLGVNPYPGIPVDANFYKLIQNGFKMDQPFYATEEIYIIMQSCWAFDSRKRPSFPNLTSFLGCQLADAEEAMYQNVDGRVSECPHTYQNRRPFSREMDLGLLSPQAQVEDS
Method: as §1
Biochemical activity for flt-3 was assessed using a Luciferase-Coupled Chemiluminescent Kinase assay (LCCA) format. Kinase activity was measured as the percent ATP remaining following the kinase reaction. Remaining ATP was detected by luciferase-luciferin-coupled chemiluminescence. […] The mixture is incubated at ambient temperature for 3 hours after which 20 uL luciferase-luciferin mix is added and the chemiluminescent signal read using a Wallac Victor^2 reader.

c-Kit kinase = c-Kit kinase (Homo sapiens, UniProt P10721); assay: c-Kit AlphaScreen kinase assay; type: biochemical;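 also: c-Kit kinase phosphorylating biotinylated poly(Glu,Tyr), ATP near its KM, 1 h reaction at ambient temperature, AlphaScreen chemiluminescence with streptavidin donor and anti-phosphotyrosine acceptor beads, 10-point inhibitor titration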
Sequence of c-Kit kinase (P10721 26-976): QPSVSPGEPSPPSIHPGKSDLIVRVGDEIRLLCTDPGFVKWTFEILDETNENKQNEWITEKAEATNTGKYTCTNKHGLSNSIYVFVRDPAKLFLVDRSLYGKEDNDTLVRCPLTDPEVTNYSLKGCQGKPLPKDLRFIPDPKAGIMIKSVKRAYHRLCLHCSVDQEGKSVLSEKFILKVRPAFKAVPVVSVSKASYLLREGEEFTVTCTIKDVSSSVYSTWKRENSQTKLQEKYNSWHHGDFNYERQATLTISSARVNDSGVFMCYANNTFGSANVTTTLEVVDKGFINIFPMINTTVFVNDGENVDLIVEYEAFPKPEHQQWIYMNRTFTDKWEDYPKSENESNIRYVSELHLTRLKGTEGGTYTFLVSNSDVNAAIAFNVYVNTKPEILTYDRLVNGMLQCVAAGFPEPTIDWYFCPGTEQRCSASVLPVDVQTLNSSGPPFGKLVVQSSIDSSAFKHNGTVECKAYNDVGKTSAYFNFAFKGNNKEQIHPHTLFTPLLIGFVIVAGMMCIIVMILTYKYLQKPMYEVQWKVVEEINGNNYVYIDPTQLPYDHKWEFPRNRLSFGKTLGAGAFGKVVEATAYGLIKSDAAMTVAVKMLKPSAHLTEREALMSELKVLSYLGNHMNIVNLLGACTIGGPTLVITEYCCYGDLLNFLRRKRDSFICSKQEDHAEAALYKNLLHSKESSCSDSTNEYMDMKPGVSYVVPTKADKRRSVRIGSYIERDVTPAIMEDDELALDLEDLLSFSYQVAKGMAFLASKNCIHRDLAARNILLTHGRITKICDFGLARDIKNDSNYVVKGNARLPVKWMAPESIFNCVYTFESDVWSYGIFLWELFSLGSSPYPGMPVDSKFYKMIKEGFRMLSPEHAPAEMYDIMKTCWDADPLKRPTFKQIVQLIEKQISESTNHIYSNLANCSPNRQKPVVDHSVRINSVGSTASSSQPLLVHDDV
Method: as §1
AlphaScreen™ (Perkin Elmer) technology is a proximity assay employing microparticles. Singlet oxygen derived from a donor bead following laser excitation results in chemiluminescence when in proximity (100 Å) to an acceptor bead due to biomolecular interactions.
c-Kit biochemical activity was assessed using AlphaScreen™ (Perkin Elmer) technology, described above. Test compounds, ATP, biotinylated poly(Glu, Tyr) and c-Kit kinase were combined in a volume of 20 μL in a 384-well white, medium binding microtiter plate (Greiner). Reaction mixtures were incubated for 1 hr at ambient temperature. […] After 16 hr incubation at ambient temperature plates were read using an AlphaQuest reader (Perkin Elmer).

[4] = target: T4, c-Met (baculovirus expressed human c-Met kinase domain P948-S1343) (Homo sapiens, UniProt P08581); assay: c-Met Luciferase-Coupled Chemiluminescent Kinase assay (LCCA); type: biochemical;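 also: kinase activity read as percent ATP left after reaction, by luciferase-luciferin chemiluminescence, with 1 µM ATP and 1 µM poly-EY substrate, 2 h at ambient temperature, 10-point dose-response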
T4 construct: human c-Met kinase domain P948-S1343; host or cells: baculovirus expression
T4 sequence (P08581 1011-1343 limits assumed): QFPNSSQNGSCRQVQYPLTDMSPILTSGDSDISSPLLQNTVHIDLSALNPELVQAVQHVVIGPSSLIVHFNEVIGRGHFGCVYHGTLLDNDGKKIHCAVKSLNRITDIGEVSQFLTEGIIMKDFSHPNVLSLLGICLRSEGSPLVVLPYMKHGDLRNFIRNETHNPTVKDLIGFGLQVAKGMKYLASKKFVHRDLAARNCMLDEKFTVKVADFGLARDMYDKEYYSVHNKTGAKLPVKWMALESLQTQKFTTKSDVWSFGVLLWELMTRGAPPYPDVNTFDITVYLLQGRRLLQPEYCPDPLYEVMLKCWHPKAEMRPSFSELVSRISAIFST

[5] = Table 4, inhibition as IC50 class

T1 sequence (P35968 807-1356): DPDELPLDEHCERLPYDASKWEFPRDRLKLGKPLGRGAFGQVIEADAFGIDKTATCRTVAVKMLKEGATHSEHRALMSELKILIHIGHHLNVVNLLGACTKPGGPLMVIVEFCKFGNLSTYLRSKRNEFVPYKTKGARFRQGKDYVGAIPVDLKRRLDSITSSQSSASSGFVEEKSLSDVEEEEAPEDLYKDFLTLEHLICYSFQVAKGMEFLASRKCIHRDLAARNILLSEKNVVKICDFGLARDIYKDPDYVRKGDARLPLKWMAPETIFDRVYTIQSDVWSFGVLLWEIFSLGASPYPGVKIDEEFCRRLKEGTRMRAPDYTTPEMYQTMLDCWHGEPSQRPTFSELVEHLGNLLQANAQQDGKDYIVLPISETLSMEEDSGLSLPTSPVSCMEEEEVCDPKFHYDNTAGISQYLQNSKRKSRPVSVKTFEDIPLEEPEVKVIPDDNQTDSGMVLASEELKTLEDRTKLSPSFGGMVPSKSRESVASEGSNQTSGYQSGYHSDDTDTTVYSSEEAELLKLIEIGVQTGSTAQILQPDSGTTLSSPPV

COc1ccccc1CNC(=O)C(=O)Nc1ccc(Oc2ccnc3cc(OCC4CCNCC4)c(OC)cc23)c(F)c1 [Example 241, N-[3-fluoro-4-({6-(methyloxy)-7-[(piperidin-4-ylmethyl)oxy]quinolin-4-yl}oxy)phenyl]-N′-{[2-(methyloxy)phenyl]methyl}ethanediamide]
IC50 [1, 5]: < 50 nM
IC50 [2, 5]: < 50 nM
IC50 [3, 5]: < 50 nM
IC50 (c-Kit kinase; [5]): < 50 nM
IC50 [4, 5]: < 50 nM

CC[C@@H](NC(=O)C(=O)Nc1ccc(Oc2ccnc3cc(OCC4CCNCC4)c(OC)cc23)c(F)c1)c1ccccc1 [Example 254, N-[3-fluoro-4-({6-(methyloxy)-7-[(piperidin-4-ylmethyl)oxy]quinolin-4-yl}oxy)phenyl]-N′-[(1R)-1-phenylpropyl]ethanediamide]
IC50 [1, 5]: 50 to 500 nM
IC50 [2, 5]: 50 to 500 nM
IC50 [3, 5]: 50 to 500 nM
IC50 (c-Kit kinase; [5]): 50 to 500 nM
IC50 [4, 5]: < 50 nM

COc1cc2c(Oc3ccc(NC(=O)C4(C(=O)Nc5ccc(F)cc5)CC4)cc3F)ccnc2cc1OCCCN1CCN(C)CC1 [Example 333, N-{3-fluoro-4-[(6-(methyloxy)-7-{[3-(4-methylpiperazin-1-yl)propyl]oxy}quinolin-4-yl)oxy]phenyl}-N′-(4-fluorophenyl)cyclopropane-1,1-dicarboxamide]
IC50 [1]: < 50 nM
IC50 [2]: < 50 nM
IC50 [3]: < 50 nM
IC50 (c-Kit kinase): < 50 nM
IC50 [4]: < 50 nM

COc1cc2c(Oc3ccc(NC(=O)C4(C(=O)Nc5ccc(F)cc5)CC4)c(C)n3)ccnc2cc1OCCCN1CCOCC1 [Example 318, N-(4-fluorophenyl)-N′-[2-methyl-6-({6-(methyloxy)-7-[(3-morpholin-4-ylpropyl)oxy]quinolin-4-yl}oxy)pyridin-3-yl]cyclopropane-1,1-dicarboxamide]
IC50 [1]: < 50 nM
IC50 [2]: 50 to 500 nM
IC50 [3]: 50 to 500 nM
IC50 (c-Kit kinase): 50 to 500 nM
IC50 [4]: < 50 nM

COc1cc2c(Oc3ccc(NC(=O)C(=O)NCC(c4ccccc4)c4ccccc4)cc3F)ccnc2cc1OCC1CCNCC1 [Example 227, N-(2,2-diphenylethyl)-N′-[3-fluoro-4-({6-(methyloxy)-7-[(piperidin-4-ylmethyl)oxy]quinolin-4-yl}oxy)phenyl]ethanediamide]
IC50 [1, 5]: 50 to 500 nM
IC50 [2, 5]: 50 to 500 nM
IC50 [3, 5]: < 50 nM
IC50 (c-Kit kinase; [5]): 50 to 500 nM
IC50 [4, 5]: < 50 nM

COc1ccc(Br)cc1CCNC(=O)C(=O)Nc1ccc(Oc2ccnc3cc(OCC4CCNCC4)c(OC)cc23)c(F)c1 [Example 280, N-{2-[5-bromo-2-(methyloxy)phenyl]ethyl}-N′-[3-fluoro-4-({6-(methyloxy)-7-[(piperidin-4-ylmethyl)oxy]quinolin-4-yl}oxy)phenyl]ethanediamide]
IC50 [1, 5]: < 50 nM
IC50 [2, 5]: < 50 nM
IC50 [3, 5]: < 50 nM
IC50 (c-Kit kinase; [5]): < 50 nM
IC50 [4, 5]: < 50 nM

COc1cc2nccc(Oc3ccc(NC(=O)C4(C(=O)Nc5ccc(F)cc5)CC4)c(C)n3)c2cc1OC [Example 306, N-(6-{[6,7-bis(methyloxy)quinolin-4-yl]oxy}-2-methylpyridin-3-yl)-N′-(4-fluorophenyl)cyclopropane-1,1-dicarboxamide]
IC50 [1]: 50 to 500 nM
IC50 [2]: 50 to 500 nM
IC50 [3]: 500 to 5000 nM
IC50 (c-Kit kinase): 50 to 500 nM
IC50 [4]: < 50 nM

COc1cc2c(Oc3ccc(NC(=O)C(=O)NCc4ccccc4OC(F)(F)F)cc3F)ccnc2cc1OCC1CCNCC1 [Example 244, N-[3-fluoro-4-({6-(methyloxy)-7-[(piperidin-4-ylmethyl)oxy]quinolin-4-yl}oxy)phenyl]-N′-({2-[(trifluoromethyl)oxy]phenyl}methyl)ethanediamide]
IC50 [1, 5]: < 50 nM
IC50 [2, 5]: < 50 nM
IC50 [3, 5]: < 50 nM
IC50 (c-Kit kinase; [5]): < 50 nM
IC50 [4, 5]: < 50 nM

CCCCNC(=O)C(=O)Nc1ccc(Oc2ccnc3cc(OCC4CCNCC4)c(OC)cc23)c(F)c1 [Example 295, N-butyl-N′-[3-fluoro-4-({6-(methyloxy)-7-[(piperidin-4-ylmethyl)oxy]quinolin-4-yl}oxy)phenyl]ethanediamide]
IC50 [1]: 50 to 500 nM
IC50 [2]: 50 to 500 nM
IC50 [3]: 50 to 500 nM
IC50 (c-Kit kinase): 50 to 500 nM
IC50 [4]: < 50 nM

COc1cc2nccc(Oc3c(F)cc(NC(=O)C4(C(=O)Nc5ccc(F)cc5)CC4)cc3F)c2cc1OC [Example 323, N-(4-{[6,7-bis(methyloxy)quinolin-4-yl]oxy}-3,5-difluorophenyl)-N′-(4-fluorophenyl)cyclopropane-1,1-dicarboxamide]
IC50 [1]: < 50 nM
IC50 [2]: < 50 nM
IC50 [3]: < 50 nM
IC50 (c-Kit kinase): 50 to 500 nM
IC50 [4]: < 50 nM

COc1cc2c(Oc3ccc(NC(=O)[C@]4(C(=O)Nc5ccc(F)cc5)C[C@H]4C)cc3F)ccnc2cc1OCCCN1CCOCC1 [Example 343, (1R,2R)-N-[3-fluoro-4-({6-(methyloxy)-7-[(3-morpholin-4-ylpropyl)oxy]quinolin-4-yl}oxy)phenyl]-N′-(4-fluorophenyl)-2-methylcyclopropane-1,1-dicarboxamide]
IC50 [1]: < 50 nM
IC50 [2]: < 50 nM
IC50 [3]: < 50 nM
IC50 (c-Kit kinase): < 50 nM
IC50 [4]: < 50 nM

COc1cc2c(Oc3ccc(NC(=O)C(=O)NCCc4ccccc4)cc3F)ncnc2cc1OCC1CCN(C)CC1 [Example 276, N-{3-fluoro-4-[(6-(methyloxy)-7-{[(1-methylpiperidin-4-yl)methyl]oxy}quinazolin-4-yl)oxy]phenyl}-N′-(2-phenylethyl)ethanediamide]
IC50 [1, 5]: < 50 nM
IC50 [2, 5]: < 50 nM
IC50 [3, 5]: < 50 nM
IC50 (c-Kit kinase; [5]): < 50 nM
IC50 [4, 5]: < 50 nM

COc1cc2c(Oc3ccc(NC(=O)C(=O)NCc4cccc(F)c4F)cc3F)ccnc2cc1OCC1CCNCC1 [Example 225, N-[(2,3-difluorophenyl)methyl]-N′-[3-fluoro-4-({6-(methyloxy)-7-[(piperidin-4-ylmethyl)oxy]quinolin-4-yl}oxy)phenyl]ethanediamide]
IC50 [1, 5]: < 50 nM
IC50 [2, 5]: < 50 nM
IC50 [3, 5]: 50 to 500 nM
IC50 (c-Kit kinase; [5]): 50 to 500 nM
IC50 [4, 5]: < 50 nM

COc1cc2c(Oc3ccc(NC(=O)C(=O)N[C@@H]4CCCc5ccccc54)cc3F)ccnc2cc1OCC1CCNCC1 [Example 218, N-[3-fluoro-4-({6-(methyloxy)-7-[(piperidin-4-ylmethyl)oxy]quinolin-4-yl}oxy)phenyl]-N′-[(1R)-1,2,3,4-tetrahydronaphthalen-1-yl]ethanediamide]
IC50 [1, 5]: 50 to 500 nM
IC50 [2, 5]: < 50 nM
IC50 [3, 5]: 50 to 500 nM
IC50 (c-Kit kinase; [5]): 50 to 500 nM
IC50 [4, 5]: < 50 nM

COc1cc2c(Oc3ccc(NC(=O)C(=O)NC4CCCC4)cc3F)ccnc2cc1OCC1CCNCC1 [Example 220, N-cyclopentyl-N′-[3-fluoro-4-({6-(methyloxy)-7-[(piperidin-4-ylmethyl)oxy]quinolin-4-yl}oxy)phenyl]ethanediamide]
IC50 [1, 5]: 50 to 500 nM
IC50 [2, 5]: 50 to 500 nM
IC50 [3, 5]: 50 to 500 nM
IC50 (c-Kit kinase; [5]): 50 to 500 nM
IC50 [4, 5]: < 50 nM

COc1cc2ncnc(Oc3ccc(NC(=O)C4(C(=O)Nc5ccc(F)cc5)CC4)cc3F)c2cc1OCC1CCN(C)CC1 [Example 325, N-{3-fluoro-4-[(7-(methyloxy)-6-{[(1-methylpiperidin-4-yl)methyl]oxy}quinazolin-4-yl)oxy]phenyl}-N′-(4-fluorophenyl)cyclopropane-1,1-dicarboxamide]
IC50 [1]: < 50 nM
IC50 [2]: < 50 nM
IC50 [3]: < 50 nM
IC50 (c-Kit kinase): 50 to 500 nM
IC50 [4]: < 50 nM

COc1cc2c(Oc3ccc(NC(=O)C(=O)NCC(C)c4ccccc4)cc3F)ccnc2cc1OCC1CCNCC1 (centres unmarked) [Example 229, N-[3-fluoro-4-({6-(methyloxy)-7-[(piperidin-4-ylmethyl)oxy]quinolin-4-yl}oxy)phenyl]-N′-(2-phenylpropyl)ethanediamide]
IC50 [1, 5]: < 50 nM
IC50 [2, 5]: < 50 nM
IC50 [3, 5]: < 50 nM
IC50 (c-Kit kinase; [5]): < 50 nM
IC50 [4, 5]: < 50 nM

COc1cc2c(Oc3ccc(NC(=O)C4(C(=O)Nc5ccc(F)cc5)CC4)cc3F)ccnc2cc1OCCCN1CCNCC1 [Example 332, N-[3-fluoro-4-({6-(methyloxy)-7-[(3-piperazin-1-ylpropyl)oxy]quinolin-4-yl}oxy)phenyl]-N′-(4-fluorophenyl)cyclopropane-1,1-dicarboxamide]
IC50 [1]: < 50 nM
IC50 [2]: < 50 nM
IC50 [3]: < 50 nM
IC50 (c-Kit kinase): < 50 nM
IC50 [4]: < 50 nM

COc1cc2c(Oc3ccc(NC(=O)C(=O)NCCC(C)(C)C)cc3F)ccnc2cc1OCC1CCNCC1 [Example 264, N-(3,3-dimethylbutyl)-N′-[3-fluoro-4-({6-(methyloxy)-7-[(piperidin-4-ylmethyl)oxy]quinolin-4-yl}oxy)phenyl]ethanediamide]
IC50 [1, 5]: < 50 nM
IC50 [2, 5]: 50 to 500 nM
IC50 [3, 5]: < 50 nM
IC50 (c-Kit kinase; [5]): < 50 nM
IC50 [4, 5]: < 50 nM

Source: patent US8476298B2 (Exelixis, Inc., priority 2003, dated 2013)
